Format in all cases: in vivo
The test system of series [1] is Abutilon theophrasti. Nature of the series: Test Example 5: herbicidal effect by foliage application, plastic box (symbol M). As to conditions: 320 g/ha, 3 weeks after application. The method in brief:
(§1)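 Emulsion formulation, diluted with water to the intended rate, was applied uniformly to leaves by small sprayer. Recipients were 14-day greenhouse-grown seedlings (25° C. to 30° C.). Assessment followed at 3 weeks.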

Series [2] relates to Alopecurus myosuroides. Nature of the series: Test Example 5: herbicidal effect by foliage application, plastic box (symbol J). As to conditions: 320 g/ha, 3 weeks after application. The method in brief: as §1
The test system of series [3] is rapeseed. Nature of the series: Test Example 5: effect on crop by foliage application, plastic box (symbol g). Conditions: 320 g/ha, 3 weeks after application. The method in brief: (§2)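 Foliage-application test plants come from spot sowing in sterilized diluvial soil under a soil layer of about 1.5 cm, grown at 25° C. to 30° C. in a greenhouse.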
In series [4] the test system is Digitaria ciliaris. Nature of the series: Test Example 5: herbicidal effect by foliage application, plastic box (symbol F). Conditions: 320 g/ha, 3 weeks after application. The method in brief: as §1
For series [5], the system named is Scirpus juncoides. Nature of the series: Test Example 1: herbicidal activity, application before weed generation in submerged conditions (symbol B). Conditions: application herbicide amount 320 g/ha. The method in brief:
(§3)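 Weed control was rated three weeks after treatment on a 0–5 scale, from 5% or lower up to 90% or more. Pre-emergence water-surface application of diluted emulsion at a predetermined rate was made on the day of sowing, in flooded (4 cm water) pots containing rice seedlings, kept at 25–30 °C under glass.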

The subject of series [6] is Stellaria media. As to the kind of experiment: Test Example 5: herbicidal effect by foliage application, plastic box (symbol P). Conditions: 320 g/ha, 3 weeks after application. The method in brief:
as §1

For series [7], the system named is wheat. As to the kind of experiment: Test Example 4: effect on crop by soil treatment (symbol e). Conditions: application herbicide amount 320 g/ha. The method in brief: (§4)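 Plants grew in a 25° C. to 30° C. greenhouse after spot-sowing of seeds, including beet, rapeseed, wheat and rice, into sterilized diluvial soil under roughly 1.5 cm of cover soil.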
The subject of series [8] is Echinochloa oryzacola Vasing. As to the kind of experiment: Test Example 1: herbicidal activity, application before weed generation in submerged conditions (symbol A). Conditions: application herbicide amount 320 g/ha. The method in brief:
as §3

Series [9] has as its system Amaranthus retroflexus. Nature of the series: Test Example 5: herbicidal effect by foliage application, plastic box (symbol N). Conditions: 320 g/ha, 3 weeks after application. The method in brief:
as §1

The test system of series [10] is Galium spurium. As to the kind of experiment: Test Example 4: herbicidal effect by soil treatment (symbol Q). As to conditions: application herbicide amount 320 g/ha. The method in brief: (§5)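 Seeds were sown in sterilized diluvial soil, covered with about 1.5 cm of soil, and the soil surface was sprayed with a water-diluted emulsion of the compound at a predetermined rate. Plants grew in a greenhouse at 25° C. to 30° C.; effects were scored visually 3 weeks after application.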

In series [11] the test system is beet. Nature of the series: Test Example 5: effect on crop by foliage application, plastic box (symbol f). As to conditions: 320 g/ha, 3 weeks after application. The method in brief:
as §2

The test system of series [12] is Cyperus difformis. Nature of the series: Test Example 3: herbicidal effect by foliage application, Wagner pot (symbol E). As to conditions: application herbicide amount 320 g/ha. The method in brief:
(§6)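 In a shallow-flooded alluvial soil system held at 25–30 °C, plants including rice grew for 14 days and were then sprayed over the foliage with emulsion diluted to a fixed herbicide amount. Visual rating followed at 3 weeks.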

The subject of series [13] is Alopecurus myosuroides. Nature of the series: Test Example 4: herbicidal effect by soil treatment (symbol J). As to conditions: application herbicide amount 320 g/ha. The method in brief: as §5
The test system of series [14] is Apera spica-venti. Nature of the series: Test Example 5: herbicidal effect by foliage application, plastic box (symbol L). As to conditions: 320 g/ha, 3 weeks after application. The method in brief: as §1
The subject of series [15] is Setaria viridis. As to the kind of experiment: Test Example 4: herbicidal effect by soil treatment (symbol G). Conditions: application herbicide amount 320 g/ha. The method in brief:
as §5

Series [16] relates to Galium spurium. Nature of the series: Test Example 5: herbicidal effect by foliage application, plastic box (symbol Q). As to conditions: 320 g/ha, 3 weeks after application. The method in brief:
as §1

Series [17] deals with rapeseed. Nature of the series: Test Example 4: effect on crop by soil treatment (symbol g). As to conditions: application herbicide amount 320 g/ha. The method in brief:
as §4

Series [18] concerns Echinochloa crus-galli var. crus-galli. Nature of the series: Test Example 3: herbicidal effect by foliage application, Wagner pot (symbol H). Conditions: application herbicide amount 320 g/ha. The method in brief: as §6
In series [19] the test system is Apera spica-venti. Nature of the series: Test Example 4: herbicidal effect by soil treatment (symbol L). Conditions: application herbicide amount 320 g/ha. The method in brief: as §5

The record followed here is US11000033B2, “Ketone or oxime compound, and herbicide” (NISSAN CHEMICAL CORPORATION, priority 2014, dated 2021).

The structures appear in SMILES notation.

As to `CON=C(C)CC1CC(OC(=O)N2CCOCC2)=C(c2c(C)cc(-c3ccc(Cl)cc3)cc2C)C1=O` (mixture of isomers) [6-062], in [1], the “M: Abutilon theophrasti, herbicidal effect (criteria of Test Example 1)” value (from here on “M: Abutilon theophrasti”) was 3 (Herbicidal ratio of 40% or higher and lower than 70%). Besides, the “J: Alopecurus myosuroides, herbicidal effect (criteria of Test Example 1)” value in [2] is reported as 5 (Herbicidal ratio of 90% or more (almost completely withered)). In addition, the “g: rapeseed, effect on crop (criteria of Test Example 1)” value in series [3] was 4 (Herbicidal ratio of 70% or higher and lower than 90%). For the same compound, in series [4], the “F: Digitaria ciliaris, herbicidal effect (criteria of Test Example 1)” value (“F: Digitaria ciliaris, herbicidal effect” below) is 5 (Herbicidal ratio of 90% or more (almost completely withered)). Further, the “Herbicidal effect grade, B: Scirpus juncoides” value (from here on “Herbicidal effect grade, B”) in series [5] was 4 (Herbicidal ratio of 70% or higher and lower than 90%). The “P: Stellaria media, herbicidal effect (criteria of Test Example 1)” value (“P: Stellaria media, herbicidal effect” for short) in [6] was 3 (Herbicidal ratio of 40% or higher and lower than 70%). In addition, the “e: wheat, effect on crop grade” value in series [7] was 0 (Herbicidal ratio of 5% or lower (almost no effect)). Further, the “Herbicidal effect grade, A: Echinochloa oryzacola Vasing.” value in [8] is 5 (Herbicidal ratio of 90% or more (almost completely withered)). Besides, the “N: Amaranthus retroflexus, herbicidal effect (criteria of Test Example 1)” value (“N: Amaranthus retroflexus” below) in series [9] was 1 (Herbicidal ratio of 5% or higher and lower than 20%). Also, in series [10], the “Q: Galium spurium, herbicidal effect grade” value is given as 0 (Herbicidal ratio of 5% or lower (almost no effect)). In addition, in series [11], the “f: beet, effect on crop (criteria of Test Example 1)” value (“f: beet, effect on crop” for short) was 0 (Herbicidal ratio of 5% or lower (almost no effect)). Further, in [12], the “herbicidal effect on E, grade 0-5” value is given as 5 (Herbicidal ratio of 90% or more (almost completely withered)). The “J: Alopecurus myosuroides, herbicidal effect grade” value in series [13] is 4 (Herbicidal ratio of 70% or higher and lower than 90%). The “L: Apera spica-venti, herbicidal effect (criteria of Test Example 1)” value in series [14] is listed as 5 (Herbicidal ratio of 90% or more (almost completely withered)). In addition, the “G: Setaria viridis, herbicidal effect grade” value in series [15] is given as 5 (Herbicidal ratio of 90% or more (almost completely withered)). Further, in [16], the “Q: Galium spurium, herbicidal effect (criteria of Test Example 1)” value is reported as 5 (Herbicidal ratio of 90% or more (almost completely withered)). The “g: rapeseed, effect on crop grade” value in [17] is recorded as 0 (Herbicidal ratio of 5% or lower (almost no effect)). For the same compound, the “herbicidal effect on H (Echinochloa crus-galli var. crus-galli), grade 0-5” value in [18] was 5 (Herbicidal ratio of 90% or more (almost completely withered)). Further, the “L: Apera spica-venti, herbicidal effect grade” value in series [19] is listed as 5 (Herbicidal ratio of 90% or more (almost completely withered)).

Consider `COc1cc(Br)cc(C)c1C1=C(O)CC(CC(C)=O)C1=O` (stereo not drawn) [7-027, 2-(4-bromo-2-methoxy-6-methylphenyl)-3-hydroxy-5-(2-oxopropyl)cyclopent-2-enone], for which the “M: Abutilon theophrasti” value in series [1] is reported as 0 (Herbicidal ratio of 5% or lower (almost no effect)). Moreover, in [2], the “J: Alopecurus myosuroides, herbicidal effect (criteria of Test Example 1)” value was 1 (Herbicidal ratio of 5% or higher and lower than 20%). Besides, the “g: rapeseed, effect on crop (criteria of Test Example 1)” value in series [3] was 2 (Herbicidal ratio of 20% or higher and lower than 40%). The “F: Digitaria ciliaris, herbicidal effect” value in series [4] is reported as 5 (Herbicidal ratio of 90% or more (almost completely withered)). The “Herbicidal effect grade, B” value in series [5] is recorded as 0 (Herbicidal ratio of 5% or lower (almost no effect)). In addition, the “P: Stellaria media, herbicidal effect” value in series [6] is listed as 0 (Herbicidal ratio of 5% or lower (almost no effect)). Also, in [7], the “Effect on crop grade, e: wheat” value is 2 (Herbicidal ratio of 20% or higher and lower than 40%). Also, in [8], the “Herbicidal effect grade, A: Echinochloa oryzacola Vasing.” value was 4 (Herbicidal ratio of 70% or higher and lower than 90%). Moreover, the “N: Amaranthus retroflexus” value in series [9] is given as 0 (Herbicidal ratio of 5% or lower (almost no effect)). For the same compound, in series [10], the “Herbicidal effect grade, Q: Galium spurium” value was 0 (Herbicidal ratio of 5% or lower (almost no effect)). The “f: beet, effect on crop” value in [11] is recorded as 0 (Herbicidal ratio of 5% or lower (almost no effect)). The “E herbicidal effect grade” value in series [12] (Table 24) was 4 (Herbicidal ratio of 70% or higher and lower than 90%). Also, in [13], the “Herbicidal effect grade, J: Alopecurus myosuroides” value was 5 (Herbicidal ratio of 90% or more (almost completely withered)). Besides, the “L: Apera spica-venti, herbicidal effect (criteria of Test Example 1)” value in [14] is 5 (Herbicidal ratio of 90% or more (almost completely withered)). Further, the “Herbicidal effect grade, G: Setaria viridis” value in series [15] is 5 (Herbicidal ratio of 90% or more (almost completely withered)). The “Q: Galium spurium, herbicidal effect (criteria of Test Example 1)” value in series [16] is 0 (Herbicidal ratio of 5% or lower (almost no effect)). For the same compound, in series [17], the “Effect on crop grade, g: rapeseed” value was 0 (Herbicidal ratio of 5% or lower (almost no effect)). Moreover, the “H (Echinochloa crus-galli var. crus-galli) herbicidal effect grade” value in [18] (Table 24) was 5 (Herbicidal ratio of 90% or more (almost completely withered)). In addition, the “Herbicidal effect grade, L: Apera spica-venti” value in [19] is 5 (Herbicidal ratio of 90% or more (almost completely withered)).

As for `CON=C(C)CC1CC(O)=C(c2c(C)cc(-n3cncn3)cc2C)C1=O` (stereo not drawn) [6-074], the “M: Abutilon theophrasti” value in series [1] is 0 (Herbicidal ratio of 5% or lower (almost no effect)). For the same compound, in [2], the “J: Alopecurus myosuroides, herbicidal effect (criteria of Test Example 1)” value is listed as 0 (Herbicidal ratio of 5% or lower (almost no effect)). Also, the “g: rapeseed, effect on crop (criteria of Test Example 1)” value in series [3] is given as 0 (Herbicidal ratio of 5% or lower (almost no effect)). For the same compound, the “F: Digitaria ciliaris, herbicidal effect” value in series [4] is 0 (Herbicidal ratio of 5% or lower (almost no effect)). The “Herbicidal effect grade, B” value in [5] is listed as 0 (Herbicidal ratio of 5% or lower (almost no effect)). Moreover, the “P: Stellaria media, herbicidal effect” value in [6] is listed as 0 (Herbicidal ratio of 5% or lower (almost no effect)). The “e: wheat, effect on crop grade” value in series [7] was 0 (Herbicidal ratio of 5% or lower (almost no effect)). For the same compound, the “Herbicidal effect grade, A: Echinochloa oryzacola Vasing.” value in series [8] is 1 (Herbicidal ratio of 5% or higher and lower than 20%). Moreover, the “N: Amaranthus retroflexus” value in series [9] was 0 (Herbicidal ratio of 5% or lower (almost no effect)). Besides, the “Q: Galium spurium, herbicidal effect grade” value in [10] was 0 (Herbicidal ratio of 5% or lower (almost no effect)). Also, the “f: beet, effect on crop” value in series [11] is reported as 0 (Herbicidal ratio of 5% or lower (almost no effect)). Also, in series [12], the “herbicidal effect on E, grade 0-5” value is 2 (Herbicidal ratio of 20% or higher and lower than 40%). Besides, in [13], the “J: Alopecurus myosuroides, herbicidal effect grade” value was 0 (Herbicidal ratio of 5% or lower (almost no effect)). Also, the “L: Apera spica-venti, herbicidal effect (criteria of Test Example 1)” value in series [14] was 0 (Herbicidal ratio of 5% or lower (almost no effect)). The “G: Setaria viridis, herbicidal effect grade” value in series [15] is 2 (Herbicidal ratio of 20% or higher and lower than 40%). Moreover, in series [16], the “Q: Galium spurium, herbicidal effect (criteria of Test Example 1)” value is 0 (Herbicidal ratio of 5% or lower (almost no effect)). For the same compound, in [17], the “g: rapeseed, effect on crop grade” value is on record as 0 (Herbicidal ratio of 5% or lower (almost no effect)). Besides, the “herbicidal effect on H (Echinochloa crus-galli var. crus-galli), grade 0-5” value in [18] is 4 (Herbicidal ratio of 70% or higher and lower than 90%). Moreover, in [19], the “L: Apera spica-venti, herbicidal effect grade” value was 0 (Herbicidal ratio of 5% or lower (almost no effect)).
